Reference: PMC6811539, “Minute-scale persistence of a GPCR conformation state triggered by non-cognate G protein interactions primes signaling” (Nature Communications, 2019)

Target: T1, β2-AR-mCer (Homo sapiens, UniProt P07550)
T1 construct: expressed in transfected cells; host or cells: native membranes of transiently transfected HEK293T cells
Experiment: competition pull-down assay, displacement of PC-Qp (fragments) from β2-AR-mCer membranes
Assay type: binding
Details: PC-Qp 50 μM; thirty seconds after UV irradiation
Description: Native membranes were prepared from cells expressing β2-mCer and were stored in sucrose-supplemented buffer A as described above (Membrane preparations). Membranes were sonicated (3× bursts, 15 s with 1 min pauses) and resuspended in ΔFRET buffer minus Ca^2+ to a concentration of 10 nM receptor based on fluorescence counts. bioQp (30 μM)/30 μM bioQp + 30 μM Qp/30 μM bioQp + 50 μM Qp, and 100 μM isoproterenol were added and mixed for 5 min. Samples were split into duplicates, one of which was not manipulated in any way to obtain the total receptor counts. To the other tube, 20 μl of 0.4 mg/ml streptavidin-coated magnetic beads were added, mixed, and precipitated using a Neodymium disc magnet N52 (20 × 40 mm). Supernatant was removed to a fresh micro-centrifuge tube to monitor fluorescence of receptors not bound to the beads. Percentage of receptors bound to the beads was calculated by subtracting the unbound from the total (duplicate). The experiment was repeated with UV exposure for 2 min, followed by the addition and pulldown using the magnetic beads.

DTENIRFVFAAVKDTILQLNLKE(Anp)NLV [PC-Qp, photocleavable Qp, Y356 replaced by Anp]
competition with bioQp for receptor binding: no longer competes with bioQp for interaction with the receptor
